Results: patent publication US11406642B2, “DNP and DNP prodrug treatment of neuromuscular, neurodegenerative, autoimmune, developmental, traumatic brain injury, concussion, dry eye disease, hearing loss and/or metabolic diseases” (priority 2016, dated 2022)
Like-named read-outs stand apart in the source and are kept apart here.

Columns and labels:
[1] = Stability in human plasma; assay type: in vitro ADME; details: 80% human plasma, 37° C.
Procedure: Plasma: Stability in rat and human plasma (37° C.)
HPLC analysis was carried out on an Agilent 1200 Infinity Series Quatpump, equipped with a photodiode array detector and a computer integrating apparatus. An Inertsil ODS-3 column, C18, 5 μm, 4.6×50 mm (GL Science Inc. Japan) protected with a guard column: Alltima C18, 5 μm, 4.6×7.5 mm (Grace Discovery Sciences, IL, USA) was used as the stationary phase. An isocratic method with a mobile phase consisting of water/acetonitrile (70:30) containing 0.05% formic acid in each was used. A flow rate of 0.9 mL/min was used and detection was carried out at a UV wavelength of 250 nm.
Formulation of II-38 in human plasma: to prepare 1 mg/mL of II-38, 2.3 mg of II-38 was formulated in DMSO (5%) and added slowly and gradually to a total volume of 2.185 mL of premixed human plasma (80%+PBS 15%, see Table 6) in a Franz cell diffusion chamber preheated to 37° C. The solution was mixed for a min every half an hour using magnetic stirrer. Samples of 20 μL (20 μg/mL of II-38) were collected at 0, 0.5, 1, 2, 4, 6 and 8 h. Each sample was mixed with acetonitrile QS to 1 mL, vortex-mixed for 30 sec and centrifuged at 10,000 rpm at room temp. A volume of 10 μL of the supernatant was injected into the HPLC spectrometer.

[2] = Plasma pharmacokinetics of 2,4-DNP, i.v. and oral; assay type: in vivo, Sprague-Dawley male rats
Procedure: All procedures that involved the use of rats were conducted in accordance with the guidelines set forth by the University of Arkansas for Medical Sciences (UAMS) Institutional Animal Care and Use Committee established by the National Institutes of Health's Guide for the Care and Use of Laboratory Animals (1996). Male Sprague-Dawley rats weighing 250-300 grams were housed three per cage with ad libitum access to food and water in the Division of Laboratory Animal Resources, UAMS. Rats were anesthetized with isofluorane (2-5%)/oxygen (1.5-2.0 L/min) and surgically implanted with cannulae in the jugular (i.v. dosing) and femoral (blood sampling) veins. […] Following appropriate evidence of successful recovery from surgery, IV or oral dosing was performed and blood samples (0.15 mL) were collected at 0, 5, 15, 30, 45, 60, 120, 240 and 480 min. Plasma samples were prepared and analysis was run using a LC/MS/MS spectrometry.
2,4-DNP was dissolved in a phosphate-saline buffer solution, pH 7.4 containing 5% DMSO and 20% PEG-400 and filtered through a 0.2-μm filter. For the oral route, rats were gavaged with 5 mg/kg in a total volume of 8 mL/kg from a stock solution containing 0.625/mL of 2,4-DNP. For the i.v. injection, a total volume of 0.8 mL/kg was used at a dose of 1 mg/kg from a stock solution containing 1.25 mg/mL.
Jugular and femoral vein-catheterized Sprague-Dawley male rats (weights 250-300 g) were treated with 2,4-DNP at a single oral dose of 5 mg/kg (n=4) or a single i.v. dose of 1 mg/kg (n=3). For each i.v. and oral experiment, blood samples (0.15 mL) were collected at 0, 5, 15, 30, 45, 60, 120, 240 and 480 min. The withdrawn blood was replaced with heparinized saline (0.15 mL). Blood samples were centrifuged at 10,000 rpm for 10 min at room temperature, and plasma samples were prepared and analysis was run using a sensitive LC/MS/MS spectrometry method (see below).
To isolate the analytes from rat plasma, 50 μL of control or treated plasma fortified with 10 μL of 2,4-DNP-d3 (10 μg/mL) as an internal standard to which 0.3 mL of methanol followed by 0.3 mL of acetonitrile was added. The mixture was vortex-mixed for 30 s and centrifuged for 10 min at 10,000 rpm at room temperature. The supernatant was transferred into 5 mL glass tubes and evaporated to dryness at 37° C. under nitrogen gas. The pellet was reconstituted with 50 μL of acetonitrile, vortex-mixed for 30 sec, followed by sonication for 1 min. Following centrifugation at 1000 rpm for 10 min at room temperature, 5 μL of the supernatant was then injected onto the column, and analytes were quantified by a LC/MS/MS spectrometry.
1—Plasma concentrations of 2,4-DNP after a single i.v. injection of 2,4-DNP of 1 mg/kg or 5 mg/kg oral administration; 2—Plasma concentrations of II-38 and 2,4-DNP-released from II-38 after an i.v. injection 1.6 mg/kg of II-38 eq. to 1 mg/kg of 2,4-DNP or an oral dose of 8, 40 and 80 mg/kg of II-38 eq. to 5, 25 and 50 mg/kg of 2,4-DNP, respectively. The mass spectrometer was an Agilent quadrupole mass spectrometer operated in the multiple reaction monitoring (MRM) mode. 2,4-DNP-d3 was used as an internal standard. 2,4-DNP, II-38 and 2,4-DNP-d3 were separated using an Alltima C18 column, 5 μm, 3.2×150 mm (Grace Discovery Sciences, IL, USA) equipped with a guard column: Alltima C18, 5 μm, 4.6×7.5 mm (Grace Discovery Sciences, IL, USA). The mobile phase consists of water with 0.005% formic acid as solvent A and acetonitrile with 0.005% formic acid as solvent B. For analysis of 2,4-DNP, II-38 and 2,4-DNP-d3 compounds, the separation was achieved using a gradient of 10 to 90% solvent B in 3.5 min, which was maintained at 90% B for the next 3.30 min and then equilibrated back to the initial conditions over 3.20 min. The flow rate was 0.8 mL/min with a column temperature of 30° C. The sample injection volume was 5 μL. […]

[3] = 2,4-DNP single oral dose 5 mg/kg, n = 4, 5 mg/kg
[4] = 2,4-DNP single oral dose 5 mg/kg, n = 4, listed as DNP, 5 mg/kg

| SMILES | hydrolysis in human plasma [1] | AUC [2, 3] | t1/2 [2, 3] | AUC [2, 4] | Cmax [2, 4] | Tmax [2, 4] | t1/2 [2, 4] | half-life ([2]; male, Sprague-Dawley, rat, plasma, iv, 1 mg/kg, 2,4-DNP single i.v. dose 1 mg/kg, n = 3) | Cmax ([2]; male, Sprague-Dawley, rat, plasma, iv, 1 mg/kg, 2,4-DNP single i.v. dose 1 mg/kg, n = 3, read-out: Cmax) | clearance ([2]; male, Sprague-Dawley, rat, plasma, iv, 2,4-DNP single i.v. dose 1 mg/kg, n = 3) | AUC ([2]; male, Sprague-Dawley, rat, plasma, iv, 2,4-DNP single i.v. dose 1 mg/kg, n = 3, read-out: AUC (converted)) | Vd ([2]; male, Sprague-Dawley, rat, plasma, iv, 2,4-DNP single i.v. dose 1 mg/kg, n = 3, read-out: Vss) | half-life ([2]; male, Sprague-Dawley, rat, plasma, po, 5 mg/kg, 2,4-DNP single oral dose 5 mg/kg, n = 4) | Cmax ([2]; male, Sprague-Dawley, rat, plasma, po, 5 mg/kg, 2,4-DNP single oral dose 5 mg/kg, n = 4, read-out: Cmax) | Tmax ([2]; male, Sprague-Dawley, rat, plasma, po, 5 mg/kg, 2,4-DNP single oral dose 5 mg/kg, n = 4, read-out: tmax (converted)) | bioavailability ([2]; male, Sprague-Dawley, rat, plasma, 2,4-DNP single oral dose 5 mg/kg, n = 4) | AUC ([2]; male, Sprague-Dawley, rat, plasma, 2,4-DNP single oral dose 5 mg/kg, n = 4, read-out: AUC (converted)) |
| --- | --- | --- | --- | --- | --- | --- | --- | --- | --- | --- | --- | --- | --- | --- | --- | --- | --- |
| O=C(Oc1ccc([N+](=O)[O-])cc1[N+](=O)[O-])N1CCOCC1 [II-38, 2,4-Dinitrophenyl morpholine-4-carboxylate] | cleaved in the plasma to produce 2,4-DNP at a slow rate | – | – | – | – | – | – | – | – | – | – | – | – | – | – | – | – |
| O=[N+]([O-])c1ccc(O)c([N+](=O)[O-])c1 [2,4-DNP, 2,4-dinitrophenol] | – | 13288.0 ± 1634.1 µg·min/mL | 2.272 ± 0.182 h | 13288 µg·min/mL | 50 µg/mL | 0.633 h | 2.27 h | 1.5 ± 0.165 h | 11.5 ± 6.2 µg/mL | 1.2 ± 0.6 mL/min/kg | 1350 µg·min/mL | 0.161 ± 0.135 L/kg | 2.27 ± 0.182 h | 50.1 ± 7.4 µg/mL | 0.625 h | 65.8 ± 11.4% | 13300 µg·min/mL |
